{"source": "patent US20220323406A1", "about": "“METHODS AND COMPOSITIONS FOR DIFFERENTIATING STEM CELLS” (Massachusetts Institute of Technology, priority 2019, published 2022)", "key": {"[1]": {"system": "ENR+CD organoids (ISC to Paneth cell differentiation)", "experiment": "Primary screen: basal (non-stimulated) lysozyme secretion LYZ.NS, 2.5-D 384-well ENR+CD organoid differentiation", "type": "cell-based, mouse", "settings": "for Dose.FC.LYZ.NS (log2 fold change) / Z.LYZ.NS (standard z score): primary screen", "from_the_text": "(§1) High-throughput screening."}, "[2]": {"system": "ENR+CD organoids (ISC to Paneth cell differentiation)", "experiment": "Primary screen: CCh-stimulated lysozyme secretion LYZ.S, 2.5-D 384-well ENR+CD organoid differentiation", "type": "cell-based, mouse", "settings": "primary screen", "from_the_text": "as §1"}, "[3]": {"system": "ENR+CD organoids (ISC to Paneth cell differentiation)", "experiment": "Secondary (validation) screen: LYZ.NS basal lysozyme secretion, 2.5-D 384-well ENR+CD organoids", "type": "cell-based, mouse", "settings": "for Dose.FC.LYZ.NS: 6-day ENR+CD, vs ENR+CD+DMSO"}, "[4]": {"system": "Paneth cells in ENR+CD organoids", "experiment": "Flow cytometry of 3D-cultured intestinal organoids, Paneth cells (lysozyme-positive, CD24-positive)", "type": "cell-based, mouse", "from_the_text": "Flow cytometry analysis (3D culture). ISC-enriched organoids cultured in 3D Matrigel with ENRCV media were passaged to 24-well plate in 3D Matrigel with ENRCV. At day zero, media were replaced to ENRCD with or without indicated compounds, and media were replaced every other day. At day six, cells were washed with basal media, and then harvested from Matrigel by mechanical disruption in TrypLE Express (ThermoFisher, 12605010) to remove Matrigel and dissociate organoids to single cells. After vigorous pipetting and incubation at 37° C. for 20 min, dissociated organoids were strained through a 35 μm cell strainer into a tube (Falcon, 352235). […] Cell pellets were resuspended in FACS buffer (2% FBS in PBS), and then transferred to an ultra low-bind 96-well plate (Corning, 7007). Cells were stained with Zombie-violet viability dye (BioLegend, 423107) at 100× for viability staining and/or antibody staining solution. FITC-conjugated antibody for lysozyme (Dako, F0372) and APC-conjugated antibody for CD24 (BioLegend, 138505) were used at 100× dilution. Flow cytometry was performed using an LSR Fortessa (BD; Koch Institute Flow Cytometry Core at MIT). The data were analyzed using FlowJo v10 software.\nThe results of primary and secondary screening reflect a mixture of potential effects arising from small molecule treatment which may result in increases in total LYZ secretion. This includes contributions from enhanced Paneth cell differentiation, altered Paneth cell activity and changes in total cell number concurrent with differentiation. To better inform how the 6 compounds identified in the screen increased total secreted LYZ, and to isolate only those which enhance Paneth differentiation robustly, Applicants next utilized flow cytometry to measure the changes in Paneth cell representation within the treated organoids. […] Single live cells were selected by several gating strategies and Paneth cells were identified as lysozyme-high, CD24-mid, side scatter-high (SSC-high) (FIG. 27E). […] To evaluate whether the culture media supplements C and D may alter the effects of the 6 hits, Applicants also performed lysozyme assay in the canonical ENR culture condition in 3-D (because Paneth cells exist in an immature state within ENR, Applicants were unable to robustly quantify Paneth cell number via flow cytometry).\nFlow cytometry. ISC-enriched organoids in 3D Matrigel culture were passaged to a 48-well plate and induced differentiation for 6 days by ENR+CD media containing DMSO or each drug indicated in the figures. DMSO- or drug-containing media were changed every other day. On day 6, cells were washed twice with basal media, then harvested from Matrigel by the mechanical disruption in TrypLE Express (Thermo, #12605010) to remove Matrigel and dissociate organoids to single cells. After vigorous pipetting and incubation at 37° C. for 15 min, the cell solution was diluted twice with basal media and centrifuged at 300 ref for 3 min. The cell pellet was resuspended in FACS buffer (PBS containing 2% FBS) and replaced into a 96-well Clear Round Bottom Ultra-Low Attachment Microplate (Corning, #7007). The cell solution was centrifuged again at 300 rcf for 3 min at 4° C. to pellet the cells. Cells were stained with Zombie-violet dye (BioLegend, #423113) at 100× for viability staining for 20 min at RT in the dark. After centrifugation for 3 min at 300 rcf, cells were fixed in fixation buffer (FACS buffer containing 1% formaldehyde (Thermo, #28906)) for 15 min on ice in the dark. Cells were centrifuged again for 3 min at 300 rcf and blocked with staining buffer (FACS buffer containing 0.5% Tween20 (Sigma, P2287)) for 15 min at RT in the dark. Pelleted cells by the centrifugation for 3 min at 300 rcf are stained with FITC-conjugated anti-lysozyme antibody (Dako, F0372) and APC-conjugated anti-CD24 antibody (Biolegend, #138505) at 100× for 45 min at RT in the dark."}, "[5]": {"settings": "mouse, in vivo, po"}, "[6]": {"settings": "2-day treatment within 6-day ENR+CD differentiation, read at day 6"}}, "data": [{"compound": "O=C(/C=C\\n1cnc(-c2cc(C(F)(F)F)cc(C(F)(F)F)c2)n1)NNc1cnccn1", "note": "[KPT-330]", "values": [{"measurement": "primary screen hit call (SSMD and z-scored FC cutoffs in both LYZ assays)", "setting": "[1]; LYZ.NS and LYZ.S, 0.08-10 uM, 6 days ENR+CD", "value": "sole hit in their respective pathway"}, {"measurement": "Dose.FC.LYZ.NS (log2 fold change)", "setting": "[1]; dose 0.08 uM", "value": 0.200}, {"measurement": "Z.LYZ.NS (standard z score)", "setting": "[1]; dose 0.08 uM", "value": 1.745}, {"measurement": "Dose.FC.LYZ.NS (log2 fold change)", "setting": "[1]; dose 0.40 uM", "value": "−0.266"}, {"measurement": "Z.LYZ.NS (standard z score)", "setting": "[1]; dose 0.40 uM", "value": "−2.317"}, {"measurement": "Dose.FC.LYZ.NS (log2 fold change)", "setting": "[1]; dose 2.00 uM", "value": "−0.280"}, {"measurement": "Z.LYZ.NS (standard z score)", "setting": "[1]; dose 2.00 uM", "value": "−2.439"}, {"measurement": "Dose.FC.LYZ.NS (log2 fold change)", "setting": "[1]; dose 10.00 uM", "value": "−0.284"}, {"measurement": "Z.LYZ.NS (standard z score)", "setting": "[1]; dose 10.00 uM", "value": "−2.470"}, {"measurement": "Dose.FC.LYZ.S (log2 fold change)", "setting": "[2]; dose 0.08 uM", "value": 0.259}, {"measurement": "Dose.FC.LYZ.S (log2 fold change)", "setting": "[2]; dose 0.40 uM", "value": "−0.282"}, {"measurement": "Dose.FC.LYZ.S (log2 fold change)", "setting": "[2]; dose 2.00 uM", "value": "−0.390"}, {"measurement": "Dose.FC.LYZ.S (log2 fold change)", "setting": "[2]; dose 10.00 uM", "value": "−0.423"}, {"measurement": "Dose.FC.LYZ.NS", "setting": "[3]; 0.02 uM", "value": "−0.005", "unit": "log2 fold change"}, {"measurement": "Dose.FC.LYZ.NS", "setting": "[3]; 0.04 uM", "value": "−0.040", "unit": "log2 fold change"}, {"measurement": "Dose.FC.LYZ.NS", "setting": "[3]; 0.08 uM", "value": 0.142, "unit": "log2 fold change"}, {"measurement": "validated doses in secondary screen (SSMD above cutoff in both LYZ assays)", "setting": "[3]; LYZ.NS and LYZ.S", "value": "multiple validated doses"}, {"measurement": "Dose.FC.LYZ.NS", "setting": "[3]; […]", "value": 0.244, "unit": "log2 fold change"}, {"measurement": "increase in basal LYZ secretion (LYZ.NS) relative to ENR+CD control", "setting": "[3]; validated dose-treatments, mean fold change vs ENR+CD+DMSO", "value": "50-75%"}, {"measurement": "enrichment in mature Paneth cells, treatment day 0-2", "setting": "[4]; [6]", "value": "greatest enrichment in mature Paneth cells"}, {"measurement": "enrichment in mature Paneth cells, treatment day 2-4", "setting": "[4]; [6]", "value": "moderate enrichment"}, {"measurement": "enrichment in mature Paneth cells, treatment day 4-6 (by flow cytometry)", "setting": "[4]; [6]", "value": "no different than untreated"}, {"measurement": "increase in mature Paneth cells at day 6 of differentiation", "setting": "[4]; ENR+CD + KPT-330 vs control", "value": 2, "unit": "fold"}, {"measurement": "mature Paneth cell population within organoids", "setting": "[4]; most potent dose from 2.5-D screening, ENR+CD 6 days, 3-D culture", "value": "significantly enhanced the mature Paneth cell population"}, {"measurement": "toxicity to mice (body weight)", "setting": "[5]", "value": "toxic to mice"}]}]}
